Experimental findings from PubChem BioAssay AID1996 are described below.

In brackets after ≈: the same amount, converted by molar mass.

For this data set the following is noted: buffer; pH 7.4; 200.0 µM.
By solubility (kinetic) is commonly meant the concentration staying in solution when a stock, usually in DMSO, is diluted into the medium. In the case of `CC(=O)Nc1ccc(OC(=O)Cc2ccc(Cl)cc2)cc1`, the solubility (kinetic) was 1.4 µg/mL (≈ 4.61 µM). Next, `COc1ccc(C(C)(C)C)cc1NC(=O)COC(=O)CN1C(=O)NC2(CCCCC2C)C1=O` (stereo not drawn): 38 µg/mL (≈ 82.7 µM); `O=C(O)c1ccc(S(=O)(=O)c2ccc([N+](=O)[O-])cc2[N+](=O)[O-])cc1`: greater than 52.8 µg/mL.

In turn, `Cc1ccccc1Nc1ncnc2c1cnn2C` yielded a kinetic solubility greater than 35.9 µg/mL.

For the compound `Cc1ccc(S(=O)(=O)N2CCC(C(=O)N3CCC3)CC2)cc1`, the solubility (kinetic) worked out at 47.4 µg/mL (≈ 147 µM).

`COc1ccccc1OCCNC(=O)C(=O)c1c[nH]c2ccccc12` showed a solubility (kinetic) of 37.2 µg/mL (≈ 110 µM). The solubility kinetic values of the last two compounds are within 1.5-fold of each other.

On to `COCc1cc(=O)oc2cc(NS(=O)(=O)c3ccc(C)cc3)ccc12`, for which the kinetic solubility was found to be 1.3 µg/mL (≈ 3.62 µM). Next, `Cc1cccc(OCCCN2C(=O)C(=O)c3cc(C)ccc32)c1`: 10.7 µg/mL (≈ 34.6 µM); `CCOP(=O)(OCC)C(O)c1cccc([N+](=O)[O-])c1` (stereo not drawn): 39.2 µg/mL (≈ 136 µM). Next, `COc1ccc(NC(=S)N2CCC(c3ccc(C)cc3)C2)cc1` (stereo not drawn): 0.6 µg/mL (≈ 1.84 µM); `CC(OC(=O)CCCC(=O)Nc1ccccc1)C(=O)c1ccccc1` (stereo not drawn): 45.6 µg/mL (≈ 134 µM); `O=C(NCC(=O)N1CCN(c2ccccc2)CC1)c1ccco1`: greater than 47 µg/mL.

Regarding `OC(CN1CCC(c2c[nH]c3ccccc23)CC1)C(F)(F)F` (stereo not drawn), the kinetic solubility was greater than 46.9 µg/mL. In turn, `Cc1ccc2nc(C)c3c(c2c1)SCC3` had a kinetic solubility of 11.3 µg/mL (≈ 52.5 µM).

Compound `CC(=O)Nc1cccc(Oc2ccc3c(c2)C(=O)NC3=O)c1` showed a kinetic solubility greater than 44.4 µg/mL. Consider `O=C1CSC(=Nc2cccc(Cl)c2Cl)N1`, for which the solubility (kinetic) amounted to 37.4 µg/mL (≈ 143 µM). The value for `Cc1ccc(S(=O)(=O)N2CCN3CCCC3C2)cc1` (stereo not drawn) was greater than 42.1 µg/mL; that for `CCCc1cc(NCc2ccccn2)n2c(nc3ccccc32)c1C#N` was less than 0.1 µg/mL; that for `Cc1ccc(S(=O)(=O)NCc2ccccc2C)cc1` was 20.4 µg/mL (≈ 74.1 µM).

As for `O=c1nc(-c2ccccc2Cl)c2cc(F)ccc2[nH]1`, the solubility (kinetic) is 38.9 µg/mL (≈ 142 µM). The value for `O=C(O)COCC(=O)Nc1ccc(OCCc2ccccc2)cc1` was 45.4 µg/mL (≈ 138 µM). For the compound `Cc1cc(C)nc(NC(=O)c2cccc(Br)c2)n1`, the solubility (kinetic) worked out at 39.8 µg/mL (≈ 130 µM). The value for `CNc1ccc(/C=C(\C#N)C(=O)Nc2ccccn2)cc1[N+](=O)[O-]` was 2.8 µg/mL (≈ 8.66 µM); that for `O=C(COC(=O)c1ccco1)Nc1ccc2[nH]c(=O)[nH]c2c1` was 9.3 µg/mL (≈ 30.9 µM); that for `CC1CCCC(NC(=O)Cn2c(Cl)nc3c2c(=O)n(C)c(=O)n3C)C1C` (stereo not drawn) was greater than 57.3 µg/mL.

As to `COc1cc(C(=S)N2CCCC2)cc(OC)c1OC`, the kinetic solubility is greater than 42.2 µg/mL. In turn, `CCCN(C(=O)c1cn(C)c(=O)c2ccccc12)c1ccccc1C` had a kinetic solubility greater than 50.2 µg/mL. For the compound `O=C(COc1ncnc2ccccc12)NC1CCCC1`, the solubility (kinetic) is greater than 40.7 µg/mL.

Compound `COc1ccc(CNC(=S)NCc2ccc(Cl)cc2)cc1OC` registered a kinetic solubility of 35 µg/mL (≈ 99.8 µM).

Compound `O=C(COC(=O)c1cccc(Br)c1)NCC1CCCO1` (stereo not drawn) returned a kinetic solubility greater than 51.3 µg/mL.

For `O=C(CSc1ccccc1)NC1CCCCCC1`, the kinetic solubility was greater than 39.5 µg/mL. `CN1C2CCC1CC(NC(=O)CSCc1ccc(Cl)cc1Cl)C2` (stereo not drawn): the kinetic solubility was greater than 56 µg/mL. Next, `O=C(COc1cccnc1[N+](=O)[O-])NCc1cccs1`: greater than 44 µg/mL; `Cc1cccc(C(=O)O)c1NC(=O)Cc1cccc2ccccc12`: greater than 47.9 µg/mL; `CC(=O)Nc1ccccc1C(=O)C(=O)Nc1cccc(Br)c1`: 29.1 µg/mL (≈ 80.6 µM). The value for `CCOc1ccc(NC(=S)Nc2cccc3ccccc23)cc1` was 2 µg/mL (≈ 6.2 µM); that for `O=C1c2cccc3c([N+](=O)[O-])ccc(c23)C(=O)N1CCc1ccccn1` was 0.4 µg/mL (≈ 1.15 µM); that for `C=CCN1CCN(C(=O)CCc2ccccc2)CC1` was 35.6 µg/mL (≈ 138 µM). Regarding `O=C(COc1cccnc1[N+](=O)[O-])Nc1cc(Cl)ccc1Cl`, the kinetic solubility was 2.9 µg/mL (≈ 8.48 µM). The value for `Cc1ccc(OCC(=O)O/N=C(\N)Cc2ccc([N+](=O)[O-])cc2)cc1C` was 9.4 µg/mL (≈ 26.3 µM). Next, `C[N+]1(C)[C@@H]2CC[C@H]1CC(OC(=O)C(CO)c1ccccc1)C2.O=[N+]([O-])[O-]` (stereo partly drawn): greater than 55 µg/mL; `CN(CC(=O)Nc1cccc(F)c1)C(=O)COc1ccc2c(c1)CCC2`: 1.9 µg/mL (≈ 5.33 µM); `CC(CN1CCN(C)CC1)OC(=O)c1cccc(F)c1.Cl` (stereo not drawn): greater than 47.5 µg/mL. The value for `Cn1cnnc1SCC(=O)NNC(=O)c1ccc([N+](=O)[O-])cc1` was greater than 50.4 µg/mL.

In the case of `Nc1c(Cl)ncnc1NCc1cccnc1`, the solubility (kinetic) was greater than 35.4 µg/mL. The value for `CCc1nn(C)c(N)c1C.Cl` was greater than 26.3 µg/mL; that for `N#Cc1ccccc1COC(=O)c1cccnc1N` was 10.5 µg/mL (≈ 41.5 µM). In turn, `C=CCn1c(O)c(CN2CCCCC2)c(C)c(C#N)c1=O` came in with a solubility (kinetic) greater than 43.1 µg/mL. Next, `Cc1cccc(N2CCN(CC3CCCCC3)CC2)c1C`: 2.9 µg/mL (≈ 10.1 µM). Compound `CCCc1nc2oc3ccccc3c(=O)c2c(=O)n1CCCOC` gave a solubility (kinetic) greater than 49.3 µg/mL. For the compound `Cc1ccc(C)c(SCC(=O)N(C)C2CCS(=O)(=O)C2)c1` (stereo not drawn), the solubility (kinetic) was greater than 49.1 µg/mL. Next, `O=c1[nH]c2ccc([N+](=O)[O-])cc2nc1/C=C(\O)c1ccccc1`: 2.3 µg/mL (≈ 7.44 µM); `O=C(CCNC(=O)c1ccccc1Cl)Nc1nc2ccccc2[nH]1`: 4.9 µg/mL (≈ 14.3 µM); `O=CNCCc1nc2ccccc2n1CCc1ccccc1`: 41 µg/mL (≈ 140 µM). Compound `CC(=O)Nc1cccc(C(=O)OC2CCOC2=O)c1` (stereo not drawn) showed a solubility (kinetic) greater than 39.5 µg/mL.

Consider `CCc1cc(Cl)c(OC)c(C(=O)NC[C@@H]2CCCN2CC)c1O.Cl`, for which the kinetic solubility is greater than 56.6 µg/mL. Next, `Cn1ccsc1=NC(=O)c1ccc(CS(C)(=O)=O)cc1`: greater than 46.6 µg/mL; `Cc1cccnc1NC(=S)NC(=O)c1oc2ccccc2c1C`: 4.7 µg/mL (≈ 14.4 µM); `O=C(COC(=O)c1ccc([N+](=O)[O-])o1)NC1CCCc2ccccc21` (stereo not drawn): 26.3 µg/mL (≈ 76.4 µM). In turn, `Cc1nc2c(c(=O)c3ccccc3n2C)c(=O)n1-c1ccccc1` yielded a solubility (kinetic) of 46.2 µg/mL (≈ 146 µM).

Take `C[C@@H]1CN(Cc2nc(-c3cnccn3)no2)C[C@H](C)O1`: the kinetic solubility stood at 30.8 µg/mL (≈ 112 µM).

With `CCC(C(=O)Nc1cc(C)cc(C)n1)c1ccccc1` (stereo not drawn), the kinetic solubility was 39.3 µg/mL (≈ 146 µM). In turn, `O=C(NCCO)N1c2ccccc2Sc2ccccc21` returned a solubility (kinetic) greater than 43 µg/mL.

`Cc1ccccc1OCC(=O)Nc1cccc(Cl)c1C` came in with a solubility (kinetic) of less than 0.6 µg/mL.

`COc1ccc(S(=O)(=O)NC2CCCCCC2)cc1C(N)=O` gave a solubility (kinetic) of 11.9 µg/mL (≈ 36.5 µM).

Consider `CCc1ccc(CN2C(=O)c3ccccc3C2C(=O)NC(C)CC)cc1` (stereo not drawn), for which the solubility (kinetic) came to 5.3 µg/mL (≈ 15.1 µM). Next, `[O-]/[N+](=C\c1ccco1)c1ccc(Cl)cc1`: 32.5 µg/mL (≈ 147 µM); `C=CCNC(=S)/N=c1/ccccn1C`: greater than 31.1 µg/mL; `O=C(CN1C(=O)NC2(CCCC2)C1=O)NCc1ccc(Cl)cc1`: greater than 50.4 µg/mL. As for `CCc1ccccc1NC(=O)CC1SCCNC1=O` (stereo not drawn), the kinetic solubility was greater than 41.8 µg/mL. Consider `CC(Sc1nnc(C(F)(F)F)n1C)C(=O)Nc1ccc(N2CCOCC2)cc1` (stereo not drawn), for which the solubility (kinetic) was greater than 62.3 µg/mL. Compound `CSc1nc2c(C)c(C)c(C)c(C)c2[nH]1` gave a solubility (kinetic) of 3.2 µg/mL (≈ 14.5 µM). Turning to `Cc1cccc(C(=O)Oc2ccccc2C(=O)N2CCOCC2)c1`, the kinetic solubility was greater than 48.8 µg/mL. As for `Cc1cc(C(=O)COc2ccc(C#N)cc2)c(C)n1CC1CCCO1` (stereo not drawn), the kinetic solubility is 16.7 µg/mL (≈ 49.3 µM). Next, `C#CCn1cnc2c(oc3ccccc32)c1=O`: greater than 33.6 µg/mL; `Cc1ccccc1OCc1nc2ccccc2n1C`: 3.1 µg/mL (≈ 12.3 µM). The value for `C(=N\Nc1nc2ccccc2[nH]1)/C1CCCCC1` was greater than 36.3 µg/mL. Next, `Cc1nc(N2CCC(C)CC2)c(C#N)c(C)c1[N+](=O)[O-]`: 0.9 µg/mL (≈ 3.28 µM); `CCOC(=O)C1CCCN(CC(=O)Nc2cccc(C(C)=O)c2)C1` (stereo not drawn): 46 µg/mL (≈ 138 µM). As to `O=C(Nc1cccc(S(=O)(=O)N2CCCCC2)c1)C1CCCC1`, the kinetic solubility is 41.2 µg/mL (≈ 122 µM).

In turn, `CN(Cc1nc(-c2ccccc2)no1)C1CCOCC1` registered a kinetic solubility of 36.7 µg/mL (≈ 134 µM).

In turn, `COCCn1c(=S)[nH]c2sc3c(c2c1=O)CCC(C)C3` (stereo not drawn) displayed a solubility (kinetic) of 40.4 µg/mL (≈ 130 µM).

With `Cn1ccnc1SCC(=O)Nc1ccc([N+](=O)[O-])cn1`, the solubility (kinetic) was greater than 44 µg/mL. Next, `CCOC(=O)N1CCN(C(=O)CCc2ccccc2)CC1`: greater than 43.6 µg/mL; `S=C(NCC1CCCO1)Nc1cccc(Cl)c1` (stereo not drawn): greater than 40.6 µg/mL; `Cl.NC(Cc1ccccc1)C(=O)N1CCCCC1` (stereo not drawn): greater than 40.3 µg/mL. Next, `OC(c1nc2ccc(F)cc2[nH]1)C(O)c1nc2ccc(F)cc2[nH]1` (stereo not drawn): greater than 49.5 µg/mL. As to `O=C(CN1C(=O)NC2(CCOc3ccccc32)C1=O)c1cccs1` (stereo not drawn), the kinetic solubility was greater than 51.4 µg/mL. Next, `COc1cc2ccccc2cc1C(=O)NCc1ccncc1`: greater than 43.9 µg/mL; `O=C(COC(=O)c1ccccc1Br)NCC1CCCCC1`: 38.1 µg/mL (≈ 108 µM). As to `COc1ccc(NC(=O)COC(=O)CCc2ccc(S(=O)(=O)N3CCOCC3)cc2)c(OC)c1`, the solubility (kinetic) is 11 µg/mL (≈ 22.3 µM). Next, `COc1ccc2ccc(O)c(CN3CC=C(c4ccccc4)CC3)c2c1`: 1.6 µg/mL (≈ 4.63 µM); `COc1ccc(-c2nc3cc([N+](=O)[O-])ccc3o2)cc1OC`: less than 0.3 µg/mL; `O=C(Nc1nccs1)c1cc(Cl)nc2ccccc12`: 5.2 µg/mL (≈ 17.9 µM). Regarding `O=C1NN=C(c2ccccc2)CC1c1c[nH]c2ccccc12` (stereo not drawn), the kinetic solubility was greater than 43.4 µg/mL.

For `COc1cc(NS(=O)(=O)c2cc(C(=O)NCCc3ccccn3)ccc2OC)cc(OC)c1`, the kinetic solubility came out at 66.4 µg/mL (≈ 141 µM). In turn, `Cc1ccccc1OS(=O)(=O)c1cn(C)c(=O)n(C)c1=O` had a kinetic solubility greater than 46.5 µg/mL.

For the compound `COc1cc2nc(NC(=O)c3ccc(Cl)cc3)sc(=O)c2cc1OC`, the solubility (kinetic) was 3.7 µg/mL (≈ 9.82 µM). The value for `Cc1ccc(NC(=O)c2cc3c(s2)CCCC3)cc1` was 4 µg/mL (≈ 14.7 µM); that for `CCC(=O)Nc1cc(C(F)(F)F)ccc1N1CCCC1` was 34 µg/mL (≈ 119 µM). `N#Cc1ccc(C(CC(=O)O)N2Cc3ccccc3C2=O)cc1` (stereo not drawn) showed a solubility (kinetic) of 44 µg/mL (≈ 144 µM).

In turn, `CCOc1ccc(NC(=O)Nc2ccc3c(c2)nc(C)n3C)cc1` showed a kinetic solubility of 2.5 µg/mL (≈ 7.71 µM). `CCN1CCN(c2ccc(NC(=O)c3ccco3)cc2Cl)CC1`: the solubility (kinetic) turned out to be 45.2 µg/mL (≈ 135 µM). This solubility kinetic is about 18-fold higher than that of the compound before.
